In experiment [1] the test system is Candida albicans. In words: Antifungal activity against Candida albicans MY 1055 after 24 hrs by NCCLS broth microdilution method. To be noted: for MIC: MY 1055, 24 h. It is filed as functional. Background: Dilution methods test growth across graded concentrations, often in twofold steps.
Experiment [2] concerns Nakaseomyces glabratus. The experiment can be described thus: Antifungal activity against Candida glabrata CLY 574 after 24 hrs by NCCLS broth microdilution method. The experiment is classed as functional.
Experiment [3] concerns Cryptococcus neoformans. The experiment can be described thus: Antifungal activity against Cryptococcus neoformans H 99 after 40 hrs by NCCLS broth microdilution method. The experiment is classed as functional.
Experiment [4] has as its system Candida albicans. In words: Antifungal activity against fluconazole-resistant Candida albicans MY 2301 after 24 hrs by NCCLS broth microdilution method. It is filed as functional.
For experiment [5], the system named is Nakaseomyces glabratus. The experiment can be described thus: Antifungal activity against Candida glabrata MY 1381 after 24 hrs by NCCLS broth microdilution method. The experiment is classed as functional.
For experiment [6], the system named is Cryptococcus neoformans. The experiment can be described thus: Antifungal activity against Cryptococcus neoformans MY 2061 after 40 hrs by NCCLS broth microdilution method. The experiment is classed as functional.
Experiment [7] has as its system Meyerozyma guilliermondii. In words: Antifungal activity against Candida guilliermondii CLY 346 after 24 hrs by NCCLS broth microdilution method. It is filed as functional.
The next experiment relates to Pichia kudriavzevii. The experiment can be described thus: Antifungal activity against Candida krusei CLY 549 after 24 hrs by NCCLS broth microdilution method. The experiment is classed as functional.
The next experiment relates to Clavispora lusitaniae. The experiment can be described thus: Antifungal activity against Candida lusitaniae MY 1396 after 24 hrs by NCCLS broth microdilution method. The experiment is classed as functional.
Experiment [8] deals with Candida albicans. The experiment can be described thus: Antifungal activity against Candida albicans SC 53124 after 24 hrs by NCCLS broth microdilution method. It is filed as functional.
The subject of experiment [9] is Meyerozyma guilliermondii. In words: Antifungal activity against Candida guilliermondii CLY 308 after 24 hrs by NCCLS broth microdilution method. It is filed as functional.
For another experiment, the system named is Candida tropicalis. The experiment can be described thus: Antifungal activity against Candida tropicalis MY 1012 after 40 hrs by NCCLS broth microdilution method. It is filed as functional.
The next experiment relates to Candida parapsilosis. The experiment can be described thus: Antifungal activity against Candida parapsilosis ATCC 22019 after 24 hrs by NCCLS broth microdilution method. The experiment is classed as functional.
The subject of experiment [10] is Cytochrome b (Candida albicans (strain SC5314 / ATCC MYA-2876) (Yeast)), P0C8L0 [Q22E]. The experiment can be described thus: Inhibition of Candida albicans isolate 2 cytochrome bc1 complex harboring cytochrome b Q22E mutant.
Experiment [11] concerns Cytochrome b (Saccharomyces cerevisiae (strain ATCC 204508 / S288c) (Baker's yeast)), P00163 [G37D]. In words: Inhibition of Saccharomyces cerevisiae isolate 2 cytochrome bc1 complex harboring cytochrome b G37D mutant.
Experiment [12] relates to Cytochrome b (Candida albicans (strain SC5314 / ATCC MYA-2876) (Yeast)), P0C8L0 [G37C]. The experiment can be described thus: Inhibition of Candida albicans isolate 3 cytochrome bc1 complex harboring cytochrome b G37C mutant.
Experiment [13] relates to Cytochrome b (Saccharomyces cerevisiae (strain ATCC 204508 / S288c) (Baker's yeast)), P00163 [S20T]. The experiment can be described thus: Inhibition of Saccharomyces cerevisiae isolate 1 cytochrome bc1 harboring cytochrome b S20T mutant.
Experiment [14] relates to Cytochrome b (Saccharomyces cerevisiae (strain ATCC 204508 / S288c) (Baker's yeast)), P00163 [G37S]. In words: Inhibition of Saccharomyces cerevisiae isolate 2 cytochrome bc1 complex harboring cytochrome b G37S mutant.
The test system of experiment [15] is Cytochrome b (Saccharomyces cerevisiae (strain ATCC 204508 / S288c) (Baker's yeast)), P00163 [Q22T]. The experiment can be described thus: Inhibition of Saccharomyces cerevisiae isolate 2 cytochrome bc1 complex harboring cytochrome b Q22T mutant.
The subject of experiment [16] is Cytochrome b (Saccharomyces cerevisiae (strain ATCC 204508 / S288c) (Baker's yeast)), P00163 [S20L]. In words: Inhibition of Saccharomyces cerevisiae isolate 1 cytochrome bc1 harboring cytochrome b S20L mutant.
The test system of experiment [17] is Cytochrome b (Saccharomyces cerevisiae (strain ATCC 204508 / S288c) (Baker's yeast)), P00163 [L198F]. The experiment can be described thus: Inhibition of Saccharomyces cerevisiae isolate 1 cytochrome bc1 complex harboring cytochrome b L198F mutant.
Experiment [18] concerns Cytochrome b (Candida albicans (strain SC5314 / ATCC MYA-2876) (Yeast)), P0C8L0 [G37S]. In words: Inhibition of Candida albicans isolate 6 cytochrome bc1 complex harboring cytochrome b G37S mutant.
For experiment [19], the system named is Cytochrome b (Saccharomyces cerevisiae (strain ATCC 204508 / S288c) (Baker's yeast)), P00163 [Q22E]. In words: Inhibition of Saccharomyces cerevisiae isolate 3 cytochrome bc1 complex harboring cytochrome b Q22E mutant.
Experiment [20] deals with Cytochrome b (Candida albicans (strain SC5314 / ATCC MYA-2876) (Yeast)), P0C8L0 [S20I]. In words: Inhibition of Candida albicans isolate 1 cytochrome bc1 complex harboring cytochrome b S20I mutant.
Experiment [21] concerns Cytochrome b (Candida albicans (strain SC5314 / ATCC MYA-2876) (Yeast)), P0C8L0 [G37D]. In words: Inhibition of Candida albicans isolate 4 cytochrome bc1 complex harboring cytochrome b G37D mutant.
A short description of experiment [22]: Selectivity ratio of MIC for Candida albicans MY 1055 to IC50 for Candida albicans MY 1055 NADH:cytochrome c oxidoreductase. The experiment is classed as functional.
A short description of experiment [23]: Inhibition of Candida albicans MY 1055 NADH:cytochrome c oxidoreductase.

Consider eight compounds from ChEMBL document CHEMBL2177002, “Antifungal spectrum, in vivo efficacy, and structure-activity relationship of ilicicolin h” (ACS Med Chem Lett, 2012).

In brackets after ≈: the same amount, converted by molar mass. Activity calls are given as the source filed them. No cut-off for these calls is given here.

Chain of Cytochrome b (Saccharomyces cerevisiae (strain ATCC 204508 / S288c) (Baker's yeast)), P00163 [G37S] (P00163 whole entry G37S): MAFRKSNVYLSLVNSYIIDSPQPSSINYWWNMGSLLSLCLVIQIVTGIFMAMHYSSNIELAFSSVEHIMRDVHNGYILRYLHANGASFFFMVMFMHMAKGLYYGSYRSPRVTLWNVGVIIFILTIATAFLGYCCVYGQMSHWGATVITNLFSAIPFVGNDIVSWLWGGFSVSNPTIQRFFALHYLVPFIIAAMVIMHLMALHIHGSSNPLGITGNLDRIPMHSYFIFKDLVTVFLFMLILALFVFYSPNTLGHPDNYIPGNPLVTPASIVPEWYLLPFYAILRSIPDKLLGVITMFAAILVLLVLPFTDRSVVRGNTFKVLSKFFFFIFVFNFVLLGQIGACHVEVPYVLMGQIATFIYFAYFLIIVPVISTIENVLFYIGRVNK
Chain of Cytochrome b (Candida albicans (strain SC5314 / ATCC MYA-2876) (Yeast)), P0C8L0 [Q22E] (P0C8L0 whole entry Q22E): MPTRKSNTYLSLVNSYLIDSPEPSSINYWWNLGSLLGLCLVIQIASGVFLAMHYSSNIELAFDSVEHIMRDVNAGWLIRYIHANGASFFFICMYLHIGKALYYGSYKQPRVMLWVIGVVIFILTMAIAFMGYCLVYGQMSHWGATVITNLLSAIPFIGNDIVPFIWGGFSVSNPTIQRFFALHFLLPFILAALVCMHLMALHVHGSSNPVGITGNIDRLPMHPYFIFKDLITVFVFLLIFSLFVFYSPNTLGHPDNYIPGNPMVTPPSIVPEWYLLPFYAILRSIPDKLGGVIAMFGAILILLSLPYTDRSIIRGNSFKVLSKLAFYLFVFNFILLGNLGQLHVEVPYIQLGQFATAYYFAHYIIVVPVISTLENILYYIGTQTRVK
Chain of Cytochrome b (Saccharomyces cerevisiae (strain ATCC 204508 / S288c) (Baker's yeast)), P00163 [L198F] (P00163 whole entry L198F): as the sequence (P00163 whole entry G37S) above, with S37G, L198F counted along it
Chain of Cytochrome b (Saccharomyces cerevisiae (strain ATCC 204508 / S288c) (Baker's yeast)), P00163 [S20L] (P00163 whole entry S20L): as the sequence (P00163 whole entry G37S) above, with S20L, S37G counted along it
Chain of Cytochrome b (Saccharomyces cerevisiae (strain ATCC 204508 / S288c) (Baker's yeast)), P00163 [G37D] (P00163 whole entry G37D): as the sequence (P00163 whole entry G37S) above, with S37D counted along it
Chain of Cytochrome b (Candida albicans (strain SC5314 / ATCC MYA-2876) (Yeast)), P0C8L0 [S20I] (P0C8L0 whole entry S20I): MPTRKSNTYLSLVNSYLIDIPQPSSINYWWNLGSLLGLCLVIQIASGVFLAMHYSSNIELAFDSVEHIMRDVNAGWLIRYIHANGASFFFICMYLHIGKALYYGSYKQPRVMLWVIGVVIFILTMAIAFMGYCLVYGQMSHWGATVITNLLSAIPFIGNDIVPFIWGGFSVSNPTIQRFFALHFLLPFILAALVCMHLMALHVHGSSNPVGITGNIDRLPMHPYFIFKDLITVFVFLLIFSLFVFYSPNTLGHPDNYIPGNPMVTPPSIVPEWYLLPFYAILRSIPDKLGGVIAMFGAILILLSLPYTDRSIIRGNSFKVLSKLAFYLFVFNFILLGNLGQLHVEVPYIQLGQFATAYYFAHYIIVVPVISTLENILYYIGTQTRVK
Chain of Cytochrome b (Candida albicans (strain SC5314 / ATCC MYA-2876) (Yeast)), P0C8L0 [G37D] (P0C8L0 whole entry G37D): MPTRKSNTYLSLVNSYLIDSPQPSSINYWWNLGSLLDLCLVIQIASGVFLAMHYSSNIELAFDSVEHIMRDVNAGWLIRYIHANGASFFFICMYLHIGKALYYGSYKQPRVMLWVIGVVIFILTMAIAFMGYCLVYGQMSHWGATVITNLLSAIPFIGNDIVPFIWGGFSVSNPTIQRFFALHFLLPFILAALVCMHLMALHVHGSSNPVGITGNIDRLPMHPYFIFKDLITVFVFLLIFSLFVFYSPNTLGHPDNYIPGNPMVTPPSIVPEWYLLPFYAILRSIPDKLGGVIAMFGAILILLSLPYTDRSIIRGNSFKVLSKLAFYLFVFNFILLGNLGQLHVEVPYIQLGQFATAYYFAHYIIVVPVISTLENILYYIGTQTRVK
Chain of Cytochrome b (Candida albicans (strain SC5314 / ATCC MYA-2876) (Yeast)), P0C8L0 [G37C] (P0C8L0 whole entry G37C): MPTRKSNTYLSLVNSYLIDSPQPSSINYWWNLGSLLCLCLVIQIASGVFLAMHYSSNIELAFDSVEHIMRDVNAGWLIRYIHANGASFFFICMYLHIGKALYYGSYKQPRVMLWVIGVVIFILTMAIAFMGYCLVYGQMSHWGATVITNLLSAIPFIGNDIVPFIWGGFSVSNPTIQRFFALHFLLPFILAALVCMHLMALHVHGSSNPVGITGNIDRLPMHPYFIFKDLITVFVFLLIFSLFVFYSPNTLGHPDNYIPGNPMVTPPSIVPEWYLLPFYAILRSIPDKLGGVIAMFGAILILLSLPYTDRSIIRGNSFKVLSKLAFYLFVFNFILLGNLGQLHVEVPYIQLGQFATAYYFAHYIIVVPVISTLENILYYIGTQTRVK
Chain of Cytochrome b (Saccharomyces cerevisiae (strain ATCC 204508 / S288c) (Baker's yeast)), P00163 [S20T] (P00163 whole entry S20T): as the sequence (P00163 whole entry G37S) above, with S20T, S37G counted along it
Chain of Cytochrome b (Saccharomyces cerevisiae (strain ATCC 204508 / S288c) (Baker's yeast)), P00163 [Q22E] (P00163 whole entry Q22E): as the sequence (P00163 whole entry G37S) above, with Q22E, S37G counted along it
Chain of Cytochrome b (Saccharomyces cerevisiae (strain ATCC 204508 / S288c) (Baker's yeast)), P00163 [Q22T] (P00163 whole entry Q22T): as the sequence (P00163 whole entry G37S) above, with Q22T, S37G counted along it
Chain of Cytochrome b (Candida albicans (strain SC5314 / ATCC MYA-2876) (Yeast)), P0C8L0 [G37S] (P0C8L0 whole entry G37S): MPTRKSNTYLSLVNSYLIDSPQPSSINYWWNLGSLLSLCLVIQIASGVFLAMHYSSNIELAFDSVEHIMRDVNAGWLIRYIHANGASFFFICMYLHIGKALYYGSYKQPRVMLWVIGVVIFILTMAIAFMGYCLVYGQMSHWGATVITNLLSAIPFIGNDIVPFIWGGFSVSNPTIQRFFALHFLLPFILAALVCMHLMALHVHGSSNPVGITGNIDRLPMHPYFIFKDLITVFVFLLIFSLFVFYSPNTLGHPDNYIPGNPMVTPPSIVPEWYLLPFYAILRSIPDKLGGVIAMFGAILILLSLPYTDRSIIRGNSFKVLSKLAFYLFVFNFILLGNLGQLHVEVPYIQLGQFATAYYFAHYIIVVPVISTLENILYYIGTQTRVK

Take `C/C=C/[C@@H]1[C@H]2C[C@@H](C)CC[C@@H]2C(C)=C[C@H]1/C(=N\O)c1c(O)c(-c2ccc(O)cc2)c[nH]c1=O`: the MIC (as a rule, the least concentration at which growth counts as inhibited) against Candida albicans [1] was more than 10 µg/mL.

In turn, `C/C=C/[C@@H]1[C@H]2C[C@@H](C)CC[C@@H]2C(C)=C[C@H]1/C1=N/NCCOCC12C(=O)NC=C(c1ccc(O)cc1)C2=O` (some centres not stated) registered an MIC against Candida albicans [1] of more than 10 µg/mL.

In the case of `CC[C@H](C)C[C@H](C)CCCCCCCCC(=O)N[C@H]1C[C@@H](O)[C@@H](NCCN)NC(=O)[C@@H]2[C@@H](O)CCN2C(=O)[C@H]([C@H](O)CCN)NC(=O)[C@H]([C@H](O)[C@@H](O)c2ccc(O)cc2)NC(=O)[C@@H]2C[C@@H](O)CN2C(=O)[C@H]([C@@H](C)O)NC1=O`, the outcome (with Nakaseomyces glabratus [2]; with Cryptococcus neoformans [3]; in the experiment with Candida albicans [4]; in the experiment with Nakaseomyces glabratus [5]; in the experiment with Cryptococcus neoformans [6]; in experiment [7]) was Active. The result (in the experiment on Pichia kudriavzevii; in the experiment on Clavispora lusitaniae; in the experiment on Candida albicans [8]; in [9]; in the experiment on Candida tropicalis; in the experiment on Candida albicans [1]) was Active. Besides, the outcome in the experiment on Candida parapsilosis was Active.

For the compound `CO/C(=C/C(N)=O)[C@H](C)[C@H](/C=C/c1csc(-c2csc([C@@H](C)/C=C/C=C/C(C)C)n2)n1)OC`, the inhibition result in experiment [10], in [11], in experiment [12], in experiment [13], in experiment [14] and in [15] was “Active” in each case. The inhibition result in experiment [16], in [17], in experiment [18], in [19], in [20] and in experiment [21] was “Active” in each case.

Turning to `C[C@@H]1[C@H](O)[C@@H](C)/C=C/C=C/C=C/C=C/C=C/C=C/C=C/[C@H](O[C@@H]2O[C@H](C)[C@@H](O)[C@H](N)[C@@H]2O)C[C@@H]2O[C@](O)(C[C@@H](O)C[C@@H](O)[C@H](O)CC[C@@H](O)C[C@@H](O)CC(=O)O[C@H]1C)C[C@H](O)[C@H]2C(=O)O`, the result (in the experiment with Nakaseomyces glabratus [2]; with Cryptococcus neoformans [3]; with Candida albicans [4]; with Nakaseomyces glabratus [5]; with Cryptococcus neoformans [6]; in experiment [7]) was Active. Besides, the result (in the experiment on Pichia kudriavzevii; with Clavispora lusitaniae; in the experiment on Candida albicans [8]; in [9]; with Candida tropicalis; with Candida albicans [1]) was Active. Besides, in the experiment on Candida parapsilosis, the outcome was Active.

`OC(Cn1cncn1)(Cn1cncn1)c1ccc(F)cc1F`: the outcome (with Nakaseomyces glabratus [2]; in the experiment on Cryptococcus neoformans [3]; in the experiment with Candida albicans [4]; in the experiment with Nakaseomyces glabratus [5]; in the experiment on Cryptococcus neoformans [6]; in [7]) was Active. Moreover, the result (with Pichia kudriavzevii; with Clavispora lusitaniae; in the experiment on Candida albicans [8]; in [9]; in the experiment on Candida tropicalis; in the experiment on Candida albicans [1]) was Active. In addition, the outcome in the experiment with Candida parapsilosis was Active.

Regarding `C/C=C/[C@H]1C(c2noc3c(-c4ccc(O)cc4)c[nH]c(=O)c23)C=C(C)[C@H]2CC[C@H](C)C[C@@H]21` (single isomer, unassigned), the MIC against Candida albicans [1] is more than 10 µg/mL.

Consider `C/C=C/[C@H]1C(c2n[nH]c3c(-c4ccc(O)cc4)c[nH]c(=O)c23)C=C(C)[C@H]2CC[C@H](C)C[C@@H]21` (single isomer, unassigned), for which the Ratio in experiment [22] stood at 10. This compound also came in with an MIC in the experiment on Candida albicans [1] of 0.25 µg/mL (≈ 0.582 µM). Also, the IC50 (commonly the concentration needed to halve the response being measured) in experiment [23] turned out to be 0.003 µg/mL (≈ 0.00698 µM).
